The source of these data is patent US11739078B2, “Methods of inhibiting kinases” (INSILICO MEDICINE IP LIMITED, priority 2019, dated 2023).

The subject of experiment [1] is collagen type 1 alpha 1 (COL1A1) mRNA expression. As to the kind of experiment: Collagen production assay (COL1A1 mRNA expression). Type of experiment: cell-based. As for the experimental part:
HDF/TERT166 working lot cells can be thawed from liquid nitrogen and expanded using standard conditions (Medium: DMEM/Ham's F12 basal medium supplemented with 1× GlutaMax-I and 10% FBS without antibiotics; 37° C. 5% CO2). For performing the treatment, cells can be seeded at a cell density of 7500 cells/cm^2 in 12-well plates the day before the first treatment. Cells can be seeded in starvation medium (DMEM/Ham's F12 basal medium supplemented with 1× GlutaMax-I and 0.5% FBS without antibiotics). Approximately 24 hours after seeding the substances can be dissolved in DMSO (stocks: 10 mM) and diluted in starvation medium to a final concentration of 10 μM. Half of this working dilution can be supplemented with 100 pg/mL TGFbeta. For each substance, two wells can be treated with a 10 μM concentration of the substance and a 10 μM concentration supplemented with 100 pg/mL TGF-beta. In parallel, cells can be treated with 100 pg/mL TGF-beta alone. Cells in starvation medium can serve as a control. For all cells treatment can be done by performing a medium exchange. […]
RNA extraction can be performed with 200 μL Chloroform, and phase separation can be achieved by centrifugation for 15 min at 12,000 g at 4° C. […] RNA concentration can be determined spectrophotometrically with a Nanodrop instrument. […]

For the next experiment, the target named is TNIK (Homo sapiens (Human), UniProt Q9UKE5). Briefly: TNIK enzymatic assay (radiometric kinase inhibition). In kind it is biochemical. The method, then: The compounds were studied for function as TNIK inhibitors to generate the data of Table 1. […] (specific activity and concentration as required). The reaction is initiated by the addition of the Mg/ATP mix. After incubation for 40 minutes at room temperature, the reaction is stopped by the addition of phosphoric acid to a concentration of 0.5%.
Sequence of TNIK (Q9UKE5 whole entry): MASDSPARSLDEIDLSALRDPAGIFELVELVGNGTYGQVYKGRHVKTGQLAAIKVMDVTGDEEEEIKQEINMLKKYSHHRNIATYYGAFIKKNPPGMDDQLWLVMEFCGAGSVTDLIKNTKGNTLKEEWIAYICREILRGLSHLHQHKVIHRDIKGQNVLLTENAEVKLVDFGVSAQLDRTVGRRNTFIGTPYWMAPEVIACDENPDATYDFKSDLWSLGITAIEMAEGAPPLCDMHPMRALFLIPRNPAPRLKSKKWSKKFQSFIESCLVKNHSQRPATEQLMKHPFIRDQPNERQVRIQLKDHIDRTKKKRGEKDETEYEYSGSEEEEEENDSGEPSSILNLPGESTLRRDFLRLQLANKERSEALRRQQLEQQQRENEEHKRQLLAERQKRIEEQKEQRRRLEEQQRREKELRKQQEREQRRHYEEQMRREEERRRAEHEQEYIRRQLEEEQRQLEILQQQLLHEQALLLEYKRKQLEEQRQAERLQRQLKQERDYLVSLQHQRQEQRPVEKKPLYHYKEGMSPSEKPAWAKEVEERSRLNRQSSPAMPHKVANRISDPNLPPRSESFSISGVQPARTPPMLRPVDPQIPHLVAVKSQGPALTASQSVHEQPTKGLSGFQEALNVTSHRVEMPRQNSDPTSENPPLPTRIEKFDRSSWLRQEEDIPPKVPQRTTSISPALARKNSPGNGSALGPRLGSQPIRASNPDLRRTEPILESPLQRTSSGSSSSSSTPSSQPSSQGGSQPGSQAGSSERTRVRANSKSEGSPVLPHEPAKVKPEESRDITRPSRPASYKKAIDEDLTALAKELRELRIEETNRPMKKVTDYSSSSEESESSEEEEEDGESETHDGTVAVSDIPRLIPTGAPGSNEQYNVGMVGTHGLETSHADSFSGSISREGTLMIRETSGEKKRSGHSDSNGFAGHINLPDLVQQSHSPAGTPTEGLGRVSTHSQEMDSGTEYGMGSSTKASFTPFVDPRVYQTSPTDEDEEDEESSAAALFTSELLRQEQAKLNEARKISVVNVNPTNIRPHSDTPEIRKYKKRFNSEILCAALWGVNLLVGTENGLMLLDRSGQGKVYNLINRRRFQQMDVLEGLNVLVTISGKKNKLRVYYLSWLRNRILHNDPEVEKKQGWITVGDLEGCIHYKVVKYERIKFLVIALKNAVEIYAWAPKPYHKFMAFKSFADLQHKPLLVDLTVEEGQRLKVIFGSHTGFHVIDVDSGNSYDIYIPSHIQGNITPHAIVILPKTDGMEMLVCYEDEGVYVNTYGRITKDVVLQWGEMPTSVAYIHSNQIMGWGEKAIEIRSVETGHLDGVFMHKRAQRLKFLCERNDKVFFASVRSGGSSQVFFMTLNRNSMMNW

The test system of experiment [2] is Human hepatic stellate cell LX-2. Briefly: LX-2 fibrosis assay, collagen production. In kind it is cell-based. The note with it: LX-2 cells stimulated with 4 ng/mL TGF-b for 48 hours, Western blot. The method, then:
Human hepatic stellate cell LX-2 were grown in DMEM (Invitrogen, 11960) supplied with 1% MEM Non-Essential Amino Acids (Invitrogen, 11140-050), 2% fetal bovine serum (Hyclone, SV30087.03), Penicillin (100 U/mL)-streptomycin (100 μg/mL) (Millipore, TMS-AB2-C) and 2 mM L-Glutamine (Invitrogen, 25030-001). After the cells grew in 12-well plates for 24 hours, the cell culture medium was changed to the same as above except using 0.4% fetal bovine serum. After 20 hour growth in the reduced serum medium, the cells were treated with indicated doses of compounds for 30 minutes. Subsequently, the cells were stimulated with 4 ng/mL TGF-b (R&D Systems, 240-B-002) for 48 hours. The cells were rinsed twice with DPBS before being harvested with 100 μL RIPA buffer (Sigma, R10278) supplemented with protease inhibitor cocktail (Roche, 04693132001) at 4° C. The total protein in each sample was quantified using BCA Protein Assay Kit (Pierce™, 23227) and equal amount of total protein of each sample was subject to Western blot analysis. Antibodies used were mouse anti-α-Actin (SPM332) ([…]), mouse anti-CTGF (E5) ([…]), and mouse anti-collagen α1 (3G3) (sc-293182), from Santa Cruz Biotechnologies; and mouse anti-GAPDH (6C5) (EMD Millipore, MAB374).

For the next experiment, the target named is MAP4K4 (h) (Homo sapiens (Human), UniProt O95819). As to the kind of experiment: MAP4K4 in vitro kinase assay (radiometric). In kind it is biochemical. Particulars: read-out: MAP4K4_IC50. The method, then:
(specific activity and concentration as required). The reaction is initiated by the addition of the Mg/ATP mix. After incubation for 40 minutes at room temperature, the reaction is stopped by the addition of phosphoric acid to a concentration of 0.5%.

What is called EC50 is the concentration giving half of the maximal effect. A high value points to weaker potency.

Structures are written as SMILES. Where two headings read alike, the source gives them in different places.

Sequence of MAP4K4 (h) (O95819 whole entry): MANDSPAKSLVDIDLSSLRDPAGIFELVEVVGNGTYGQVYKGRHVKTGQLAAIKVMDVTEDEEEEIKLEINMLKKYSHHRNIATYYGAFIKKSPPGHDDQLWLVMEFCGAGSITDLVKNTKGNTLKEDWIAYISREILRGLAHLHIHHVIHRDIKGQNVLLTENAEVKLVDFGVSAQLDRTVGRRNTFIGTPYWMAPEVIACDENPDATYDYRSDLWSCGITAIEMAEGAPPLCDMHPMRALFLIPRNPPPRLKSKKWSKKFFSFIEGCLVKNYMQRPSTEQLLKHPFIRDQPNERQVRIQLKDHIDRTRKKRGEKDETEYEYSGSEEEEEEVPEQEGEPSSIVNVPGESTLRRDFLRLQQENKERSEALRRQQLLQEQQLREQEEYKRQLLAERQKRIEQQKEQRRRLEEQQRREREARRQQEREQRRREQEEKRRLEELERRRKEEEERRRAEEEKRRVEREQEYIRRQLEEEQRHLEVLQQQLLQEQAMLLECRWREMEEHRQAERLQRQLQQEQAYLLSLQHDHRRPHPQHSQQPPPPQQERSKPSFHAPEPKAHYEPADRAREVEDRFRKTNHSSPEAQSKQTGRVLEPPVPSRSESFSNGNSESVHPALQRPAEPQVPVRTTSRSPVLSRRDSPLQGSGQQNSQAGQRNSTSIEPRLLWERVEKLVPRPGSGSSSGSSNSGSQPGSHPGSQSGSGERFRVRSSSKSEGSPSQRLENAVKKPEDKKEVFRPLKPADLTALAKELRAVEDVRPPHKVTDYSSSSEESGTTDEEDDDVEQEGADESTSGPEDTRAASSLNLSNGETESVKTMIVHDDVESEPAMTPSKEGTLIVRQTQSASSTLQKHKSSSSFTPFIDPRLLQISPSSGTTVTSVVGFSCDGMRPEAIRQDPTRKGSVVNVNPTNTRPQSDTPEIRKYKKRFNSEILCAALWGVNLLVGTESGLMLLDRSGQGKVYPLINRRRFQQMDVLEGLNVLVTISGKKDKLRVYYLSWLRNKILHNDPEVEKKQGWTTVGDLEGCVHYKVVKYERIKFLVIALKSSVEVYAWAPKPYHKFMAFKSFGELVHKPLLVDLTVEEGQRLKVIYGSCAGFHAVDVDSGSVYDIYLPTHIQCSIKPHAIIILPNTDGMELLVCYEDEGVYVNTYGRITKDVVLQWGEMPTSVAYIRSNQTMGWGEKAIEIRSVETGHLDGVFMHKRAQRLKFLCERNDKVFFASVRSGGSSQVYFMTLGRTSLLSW

`CC(=O)Nc1ccc(C(=O)Nc2sc(Nc3ccccc3)nc2C(N)=O)cc1` [5-(4-acetamidobenzamido)-2-(phenylamino)-1,3-thiazole-4-carboxamide]: the “collagen type 1 alpha 1 (COL1A1) mRNA expression” value in experiment [1] was “decreased”. The “effect of TGF-beta treatment on the COL1A1 mRNA expression” value in experiment [1] (with TGF-beta treatment) is on record as “inhibited”.
Regarding `O=C(Nc1ccncc1F)c1ccc(-c2c(-c3ccc(F)cc3)ncn2[C@@H]2CCC[C@H]2O)o1` (racemic) [Compound A-60, rac-5-(4-(4-fluorophenyl)-1-((1R,2R)-2-hydroxycyclopentyl)-1H-imidazol-5-yl)-N-(3-fluoropyridin-4-yl)furan-2-carboxamide], the IC50 was found to be 0.457 µM on TNIK (read-out: TNIK_IC50) and 0.532 µM at MAP4K4 (h). In experiment [2], this molecule registered a half-maximal effective concentration (EC50) of 0.999 µM.
For the molecule `O=C(Nc1ccccc1F)c1ccc(-c2c(-c3ccc(F)cc3)ncn2C2CCNC2)o1` (stereo not drawn) [Compound 85, N-(2-fluorophenyl)-5-(4-(4-fluorophenyl)-1-(pyrrolidin-3-yl)-1H-imidazol-5-yl)furan-2-carboxamide], the IC50 was 0.251 µM at TNIK (TNIK enzymatic assay, Table 1, read-out: IC50); 0.251 µM at TNIK (read-out: TNIK_IC50); 1.2 µM on MAP4K4 (h). A half-maximal effect in experiment [2] (Homo sapiens, LX-2, 48 h) (EC50) was put at 2.01 µM.
For `O=C(Nc1ccncc1F)c1ccc(-c2c(-c3ccc(F)cc3)ncn2[C@@H]2CCC[C@H]2O)o1` (racemic) [Compound A-61, rac-5-(4-(4-fluorophenyl)-1-((1R,2R)-2-hydroxycyclopentyl)-1H-imidazol-5-yl)-N-(3-fluoropyridin-4-yl)furan-2-carboxamide], the IC50 worked out at 0.0288 µM on TNIK (read-out: TNIK_IC50) and 0.0234 µM on MAP4K4 (h). In addition, in experiment [2], the EC50 worked out at 0.22 µM.
Consider `O=C(Nc1ccccc1F)c1ccc(-c2c(-c3ccncc3)ncn2C2CCCC2)o1` [Compound 91, 5-(1-cyclopentyl-4-(pyridin-4-yl)-1H-imidazol-5-yl)-N-(2-fluorophenyl)furan-2-carboxamide], for which the IC50 was 0.136 µM on TNIK (read-out: TNIK_IC50) and 0.566 µM at MAP4K4 (h). This molecule also showed an EC50 in experiment [2] (Homo sapiens, LX-2, 48 h) of 1.53 µM.
As for `O=C(Nc1cc[nH]c(=O)c1)c1ccc(-c2c(-c3ccc(F)cc3)ncn2C2COC2)o1` [Compound A-46, 5-(4-(4-fluorophenyl)-1-(oxetan-3-yl)-1H-imidazol-5-yl)-N-(2-oxo-1,2-dihydropyridin-4-yl)furan-2-carboxamide], the IC50 on TNIK (read-out: TNIK_IC50) came out at 5.38 µM; at MAP4K4 (h), 8.3 µM. This molecule also had a half-maximal effective concentration (EC50) in experiment [2] (Homo sapiens, LX-2, 48 h) of over 10 µM.
`O=C(Nc1ccncc1F)c1ccc(-c2c(-c3ccc(F)cc3)ncn2[C@@H]2CC[C@H](O)C2)o1` (racemic) [Compound A-62, rac-5-(4-(4-fluorophenyl)-1-((1R,3 S)-3-hydroxycyclopentyl)-1H-imidazol-5-yl)-N-(3-fluoropyridin-4-yl)furan-2-carboxamide]: the IC50 on TNIK (read-out: TNIK_IC50) amounted to 0.093 µM; on MAP4K4 (h) it was 0.064 µM. The same molecule registered an EC50 in experiment [2] (Homo sapiens, LX-2, 48 h) of 0.424 µM.
